The source of these data is article PMC4136963, “Structure-Based Design and Synthesis of Antiparasitic Pyrrolopyrimidines Targeting Pteridine Reductase 1” (Journal of Medicinal Chemistry, 2014).

Counter-ions that a name gives are not always drawn. Like-named read-outs stand apart in the source and are kept apart here.

The subject of data set [1] is T. b. brucei. Nature of the data set: microbe, parasite or virus in culture. It counts as cell-based, T. b. brucei (strain Lister 427). As to the method: Cells were routinely diluted when reaching the mid-log-phase concentration of 2 × 10^6 cells/mL and maintained in culture for no more than 30 passages.
Compounds’ potency against trypanosomes was assessed by Alamar blue assay.[31] Cells were seeded at a final concentration of 2 × 10^4 cells/mL into serial dilutions of the test compound. After 48 h incubation at 37 °C and 5% CO2, 20 μL of resazurin dye (Sigma-Aldrich) solution at 0.49 mM was added, and cells were incubated for a further 24 h. The reduction of resazurin was measured with a fluorimeter (FLUOstar Optima, BMG Labtech) using 544 nm excitation and 590 nm emission wavelengths. Output was plotted using the IC50 determination algorithm of the GraphPad Prism 5.0 software. All experiments were carried out in duplicate and repeated on at least three independent occasions.

Data set [2] has as its system HEK 293T cells. Nature of the data set: cells. The settings on record: read-out: HEK (IC50 μM). The format is cell-based, human.
Data set [3] is described as follows: Clearance (Cli). The format is in vitro ADME. The settings on record: footnote: Cli is the clearance in vivo.
Data set [4] is described as follows: Plasma binding (fraction unbound). The format is in vitro ADME. The settings on record: mouse; fraction unbound by plasma; read-out: plasma bind fu.
The nature of data set [5]: Metabolic stability in microsomal assay (t1/2). Particulars: microsomes. It counts as in vitro ADME.
The subject of data set [6] is T. b. brucei strain 427. The settings on record: infected mice, 30 mg/kg i.p. once daily up to 4 days; one surviving mouse per group; from ∼10^8.
Description: Twenty-four hours postinfection mice were injected intraperitoneally with 30 mg/kg daily of test compound (repeated for four consecutive days), prepared in a 10% v/v DMSO, 40% v/v PEG, and 50% v/v water solution. Parasitaemia was monitored daily by tail venipuncture. Infected, untreated mice were used as control.
Where [7] appears, read: Trypanosoma brucei, read-out: T. b. brucei (IC50 μM) CMM, Creek's minimal medium (CMM).
Where [8] appears, read: Trypanosoma brucei, read-out: T. b. brucei (IC50 μM) HMI-9, HMI-9 medium.
Setting [9] is: Trypanosoma brucei, read-out: T. b. brucei (IC50 μM), medium not stated.
Where [10] appears, read: read-out: T. b. brucei (IC50 μM) CMM, Creek's minimal medium (CMM).
Where [11] appears, read: half-life of the compound, read-out: t1/2.
The mark [12] stands for this setting: read-out: T. b. brucei (IC50 μM) HMI-9, HMI-9 medium.

Turning to `Nc1nc2[nH]c(-c3ccc(CCCN4CCOCC4)cc3)c(-c3ccccc3)c2c(=O)[nH]1` [compound 38, 2-Amino-6-{4-[3-(4-morpholinyl)propyl]phenyl}-5-phenyl-3,7-dihydro-4H-pyrrolo[2,3-d]pyrimidin-4-one trifluoroacetate], the 50% inhibitory concentration (IC50) amounted to 20.1 µM in data set [1] (setting [7]) and 38.1 µM in data set [1] (setting [8]).
For `Nc1nc(N)c(C(C[N+](=O)[O-])c2ccccc2)c(=O)[nH]1` (stereo not shown) [26c, 2,6-diamino-5-(2-nitro-1-phenylethyl)-4(3H)-pyrimidinone], the IC50 stood at 1.02 µM in data set [1] (setting [9]) and 134 µM in data set [2] (Homo sapiens, HEK-293T).
`N#Cc1c[nH]c2nc(N)nc(N3CCSCC3)c12` [12d]: the IC50 in data set [1] (setting [9]) is 14.3 µM.
In data set [3], `Nc1nc(N2CCCC2)c2c(C#Cc3ccccc3)c[nH]c2n1` [compound 20, 5-(Phenylethynyl)-4-(1-pyrrolidinyl)-7H-pyrrolo[2,3-d]pyrimidin-2-amine] returned a Cli of 5.6 mL/min/g.
Regarding `CC(C)COc1nc(N)nc(N)c1C(C[N+](=O)[O-])c1ccc(F)cc1` (stereo not shown) [30a], the concentration for half-maximal inhibition (IC50) came to 10.6 µM in data set [1] (setting [7]) and 13.9 µM in data set [1] (setting [8]).
On to `Nc1nc2[nH]cc(CCc3ccccc3)c2c(=O)[nH]1` [27d], for which, in data set [1] (setting [9]), the IC50 worked out at 7620 µM.
Regarding `N#Cc1c[nH]c2nc(N)nc(N)c12` [compound 4, 2,4-diamino-7H-pyrrolo[2,3-d]pyrimidine-5-carbonitrile], in data set [1] (setting [9]), the IC50 was determined as 2440 µM.
Consider `CC(C)Oc1nc(N)nc(N)c1C(C[N+](=O)[O-])c1ccc(F)cc1` (stereo not shown) [30c, 5-[1-(4-Fluorophenyl)-2-nitroethyl]-6-isopropyloxy-2,4-pyrimidinediamine], for which the values for the IC50 in data set [1] (setting [7]) and in data set [1] (setting [8]) were 8.48 µM and 15.9 µM, respectively.
As for `Nc1nc2[nH]c(-c3ccccc3)c(-c3ccccc3)c2c(=O)[nH]1` [34a, 2-Amino-5,6-diphenyl-3,7-dihydro-4H-pyrrolo[2,3-d]pyrimidin-4-one], the IC50 in data set [1] (setting [7]) was determined as 0.41 µM; in data set [1] (setting [8]), 0.64 µM; in data set [1] (setting [10]), 0.407 µM. For the same compound, the fraction unbound in data set [4] worked out at 0.029. The half-life in data set [5] (setting [11]) is approximately 2.17 h.
For the compound `Nc1nc(N)c(C(CCc2ccccc2)C[N+](=O)[O-])c(N)n1` (stereo not shown) [28d], the IC50 in data set [1] (setting [9]) was determined as 8.82 µM.
On to `Cc1ccc(C(C[N+](=O)[O-])c2c(N)nc(N)[nH]c2=O)cc1` (stereo not shown) [26a], for which the IC50 in data set [1] (setting [9]) is 2.04 µM; in data set [2] (Homo sapiens, HEK-293T), 73.4 µM.
As for `Nc1nc(N)c2c(-c3ccccc3)c(-c3ccccc3)[nH]c2n1` [35a, 5,6-Diphenyl-7H-pyrrolo[2,3-d]pyrimidine-2,4-diamine], the IC50 in data set [1] (setting [7]) came out at 0.58 µM; in data set [1] (setting [8]) it was 2.25 µM; in data set [1] (setting [10]), 0.583 µM; in data set [1] (setting [12]), 2.25 µM; in data set [2] (Homo sapiens, HEK-293T), 62.9 µM; in data set [2], 62.9 µM. In data set [3], this compound yielded a Cli of 5.26 mL/min/g. In addition, the fraction unbound in data set [4] came out at 0.035. For the same compound, the half-life in data set [5] (setting [11]) is approximately 1.67 h.
As for `Nc1nc(N)c(C(C[N+](=O)[O-])c2ccc(F)cc2)c(N)n1` (stereo not shown) [28b], the IC50 worked out at 0.16 µM in data set [1] (setting [9]) and 39.1 µM in data set [2] (Homo sapiens, HEK-293T).
On to `Cc1ccc(C(C[N+](=O)[O-])c2c(N)nc(N)nc2N)cc1` (stereo not shown) [28a], for which the IC50 in data set [1] (setting [9]) turned out to be 0.47 µM; in data set [2] (Homo sapiens, HEK-293T), 32.5 µM.
On to `Nc1nc2[nH]c(-c3ccc(F)cc3)c(-c3ccccc3)c2c(=O)[nH]1` [34c, 2-Amino-6-(4-fluorophenyl)-5-phenyl-3,7-dihydro-4H-pyrrolo[2,3-d]pyrimidin-4-one], for which the IC50 in data set [1] (setting [7]) is 0.61 µM; in data set [1] (setting [8]), 0.74 µM; in data set [1] (setting [10]) it was 0.614 µM; in data set [1] (setting [12]), 0.738 µM; in data set [2] (Homo sapiens, HEK-293T), more than 200 µM. The Cli in data set [3] is 0.17 mL/min/g. Further, the fraction unbound in data set [4] was determined as 0.017.
With `Nc1nc(N)c(C(C[N+](=O)[O-])c2ccccc2)c(N)n1` (stereo not shown) [28c, 5-(2-Nitro-1-phenylethyl)-2,4,6-pyrimidinetriamine], the IC50 in data set [1] (setting [9]) was 0.13 µM; in data set [2] (Homo sapiens, HEK-293T), 35 µM.
Turning to `N#Cc1c(-c2cccc(C=O)c2)[nH]c2nc(N)nc(N)c12` [6a], the IC50 in data set [1] (setting [9]) is 6.03 µM.
`Nc1nc2[nH]c(-c3ccc(F)cc3)c(-c3cccc(Cl)c3)c2c(=O)[nH]1` [34l] registered a Cli in data set [3] of less than 0.5 mL/min/g.
In the case of `CN(Cc1cnc2nc(N)nc(N)c2n1)c1ccc(C(=O)N[C@@H](CCC(=O)O)C(=O)O)cc1` [methotrexate, reference compound], the IC50 in data set [1] (setting [7]) amounted to 0.011 µM; in data set [1] (setting [8]) it was 3.66 µM.
For `N=C(N)c1ccc(/N=N/Nc2ccc(C(=N)N)cc2)cc1` [diminazene, reference compound], in that order: 0.007 µM and 0.027 µM.
For the compound `Nc1nc(N)c(C(C[N+](=O)[O-])c2ccc(F)cc2)c(NC2CCCCC2)n1` (stereo not shown) [30b], the IC50 worked out at 0.8 µM in data set [1] (setting [7]); 0.54 µM in data set [1] (setting [8]); 32.6 µM in data set [2] (Homo sapiens, HEK-293T).
With `Nc1nc(N)c2c(-c3ccccc3)c(-c3ccc(F)cc3)[nH]c2n1` [35b, 6-(4-Fluorophenyl)-5-phenyl-7H-pyrrolo[2,3-d]pyrimidine-2,4-diamine], the IC50 is 0.08 µM in data set [1] (setting [7]); 0.32 µM in data set [1] (setting [8]); 0.082 µM in data set [1] (setting [10]); 0.321 µM in data set [1] (setting [12]); 49.2 µM in data set [2] (Homo sapiens, HEK-293T); 49.2 µM in data set [2]. This compound displayed a Cli in data set [3] of 1.90 mL/min/g. Further, the fraction unbound in data set [4] was determined as 0.011. For the same compound, the half-life in data set [5] (setting [11]) was more than 8.33 h; in data set [5] (metabolic stability in microsomal assay, read-out: t1/2 in microsomal assay) it was more than 8 h. Further, in data set [6], the reduction of parasitaemia result was “below detectable limits”.
Take `Nc1nc2[nH]c(-c3ccccc3)c(CCc3ccccc3)c2c(=O)[nH]1` [34i]: the Cli in data set [3] was 2.5 mL/min/g.
In the case of `Nc1nc(N2CCSCC2)c2cc[nH]c2n1` [8b], the IC50 in data set [1] (setting [9]) came out at 80.1 µM.
For the compound `Nc1nc(N)c2c(-c3ccc(F)cc3)c[nH]c2n1` [29b], the Cli in data set [3] was determined as 1.7 mL/min/g.
As to `Nc1nc(N)c(C(C[N+](=O)[O-])c2ccc(F)cc2)c(=O)[nH]1` (stereo not shown) [26b], the IC50 in data set [1] (setting [9]) was found to be 1.86 µM; in data set [2] (Homo sapiens, HEK-293T), 150 µM.
